From ChEMBL document CHEMBL3865836, “Biosynthesis-Inspired Total Synthesis of Bioactive Styryllactones (+)-Goniodiol, (6S,7S,8S)-Goniodiol, (-)-Parvistone D, and (+)-Parvistone E” (J Nat Prod, 2016)

Tests used:
[1] = Cytotoxicity against human Bel7470 cells by trypan blue dye exclusion method; type: functional, cell-based
[2] = Cytotoxicity against human Bcap32 cells by trypan blue dye exclusion method; type: functional, cell-based
[3] = Cytotoxicity against human HeLa cells by trypan blue dye exclusion method; type: functional, cell-based
[4] = Cytotoxicity against mouse P388 cells; type: functional, cell-based
[5] = Cytotoxicity against human A549 cells; type: functional; conditions: read-out: ED50 (the source's name)

Q: Which IC50 [1] does the source give for O=C1C=CC[C@H]([C@@H](O)[C@H](O)c2ccccc2)O1 here?
A: 4.1 µM

Q: What about the IC50 [2] of the same compound?
A: 54.7 µM

Q: What about the IC50 [3] of the same compound?
A: 12.8 µM

Q: Which IC50 [4] does the source give for O=C1C=CC[C@H]([C@H](O)[C@H](O)c2ccccc2)O1 [GONIODIOL] here?
A: 19.5 µM

Q: What about the EC50 [5] of the same compound?
A: 0.51 µM
